Test results as given in article PMC9232501, “Results of the phase I CCTG IND.231 trial of CX-5461 in patients with advanced solid tumors enriched for DNA-repair deficiencies” (Nature Communications, 2022).
Read-outs that look alike come from different tables or passages of the source.

Assay: Plasma pharmacokinetics of CX-5461 (HPLC-MS/MS, non-compartmental)
Type: in vivo, human
Settings: plasma; for concentration at 48 h / concentration at 72 h / concentration at 0.5 h / concentration at 1 h / concentration at 4 h / concentration at 6 h / concentration at 0 h / concentration at 2 h / concentration at 24 h: individual patients, read-out: Day 1 CX-5461 plasma concentration
Protocol: PK was assessed on all patients in the escalation phase. Venous blood samples were collected on treatment days 1, 8, and 15 (where applicable), and plasma CX-5461 was analyzed with HPLC-MS/MS (schedule details in Supplementary Table 3). PK parameters were calculated with non-compartmental methods. […] The protocol was amended to allow submission of a ctDNA sample and in a further amendment, a mandatory skin biopsy (pre-treatment and cycle 1 day 15) to study phototoxic effects. Fresh tumor biopsies were optional.
Supplementary Table 3. Schedule for collection of CX5461 pharmacokinetics
During infusion at 30 minutes
Immediately post infusion then:
C1D1 30 minutes post infusion
C1D2 24 hours post infusion
C1D3 48 hours post infusion
C1D4 72 hours post infusion
Immediately post infusion then
C1D15 30 minutes post infusion
C1D16 24 hours post infusion
In addition to the specific time points listed above, additional samples were to be collected from […]

[1] = human, intravenous, 50 mg/m2, 50 mg/m2
[2] = human, intravenous, 100 mg/m2, 100 mg/m2
[3] = human, intravenous, 150 mg/m2, 150 mg/m2
[4] = human, intravenous, 200 mg/m2, 200 mg/m2
[5] = human, intravenous, 250 mg/m2, 250 mg/m2
[6] = human, intravenous, 325 mg/m2, 325 mg/m2
[7] = human, intravenous, 325 mg/m2, B: 325 mg/m2
[8] = human, intravenous, 475 mg/m2, 475 mg/m2
[9] = human, intravenous, 475 mg/m2, B: 475 mg/m2
[10] = human, intravenous, 650 mg/m2, 650 mg/m2

## Cc1cnc(CNC(=O)c2c(=O)c3ccc(N4CCCN(C)CC4)nc3n3c2sc2ccccc23)cn1 [CX-5461]
[1]
  concentration at 48 h: 24.8 ng/mL
  concentration at 72 h: 13.3 ng/mL
human, intravenous, 50 mg/m2, Dose level 50 (mg/m2), one patient per datapoint, read-out: Day 1 AUC
  AUC: 3240 ng·h/mL
[2]
  concentration at 0.5 h: 141 ng/mL
  concentration at 1 h: 115 ng/mL
  concentration at 4 h: 103 ng/mL
  concentration at 6 h: 83.2 ng/mL
  concentration at 48 h: 44.7 ng/mL
  concentration at 72 h: 20 ng/mL
human, intravenous, 100 mg/m2, Dose level 100 (mg/m2), one patient per datapoint, read-out: Day 1 AUC
  AUC: 5240 ng·h/mL
human, intravenous, 100 mg/m2, Dose level 100 (mg/m2), one patient per datapoint, read-out: Day 8 or 15 Cmax
  Cmax: 1140 ng/mL
[3]
  concentration at 0 h: 465 ng/mL
  concentration at 0.5 h: 320 ng/mL
  concentration at 2 h: 206 ng/mL
  concentration at 4 h: 200 ng/mL
  concentration at 6 h: 179 ng/mL
human, intravenous, 150 mg/m2, Dose level 150 (mg/m2), one patient per datapoint, read-out: Day 1 Cmax
  Cmax: 465 ng/mL
human, intravenous, 150 mg/m2, Dose level 150 (mg/m2), one patient per datapoint, read-out: Day 8 or 15 AUC
  AUC: 19600 ng·h/mL
[4]
  concentration at 24 h: 72.8 ng/mL
  concentration at 72 h: 31.4 ng/mL
[5]
  concentration at 0 h: 867 ng/mL
  concentration at 0.5 h: 420 ng/mL
  concentration at 1 h: 423 ng/mL
  concentration at 2 h: 369 ng/mL
  concentration at 4 h: 233 ng/mL
  concentration at 24 h: 197 ng/mL
  concentration at 48 h: 106 ng/mL
  concentration at 72 h: 85.4 ng/mL
human, intravenous, 250 mg/m2, Dose level 250 (mg/m2), one patient per datapoint, read-out: Day 1 AUC
  AUC: 12400 ng·h/mL
human, intravenous, 250 mg/m2, Dose level 250 (mg/m2), one patient per datapoint, read-out: Day 8 or 15 AUC
  AUC: 19000 ng·h/mL
[6]
  concentration at 0 h: 1310 ng/mL
  concentration at 0.5 h: 446 ng/mL
  concentration at 1 h: 400 ng/mL
  concentration at 2 h: 395 ng/mL
  concentration at 4 h: 244 ng/mL
  concentration at 6 h: 291 ng/mL
  concentration at 24 h: 232 ng/mL
  concentration at 48 h: 138 ng/mL
  concentration at 72 h: 110 ng/mL
[7]
  concentration at 1 h: 297 ng/mL
  concentration at 2 h: 308 ng/mL
  concentration at 4 h: 252 ng/mL
  concentration at 6 h: 271 ng/mL
  concentration at 48 h: 203 ng/mL
  concentration at 72 h: 107 ng/mL
human, intravenous, 325 mg/m2, Dose level 325 (mg/m2), one patient per datapoint, read-out: Day 1 AUC
  AUC: 15000 ng·h/mL
human, intravenous, 325 mg/m2, Dose level 325 (mg/m2), one patient per datapoint, read-out: Day 1 Cmax
  Cmax: 1310 ng/mL
human, intravenous, 325 mg/m2, Dose level 325 (mg/m2), one patient per datapoint, read-out: Day 8 or 15 AUC
  AUC: 24600 ng·h/mL
human, intravenous, 325 mg/m2, Dose level 325 (mg/m2), one patient per datapoint, read-out: Day 8 or 15 Cmax
  Cmax: 1440 ng/mL
human, intravenous, 325 mg/m2, Dose level B: 325 (mg/m2), one patient per datapoint, read-out: Day 1 AUC
  AUC: 25200 ng·h/mL
human, intravenous, 325 mg/m2, Dose level B: 325 (mg/m2), one patient per datapoint, read-out: Day 1 Cmax
  Cmax: 822 ng/mL
[8]
  concentration at 0 h: 1540 ng/mL
  concentration at 0.5 h: 475 ng/mL
  concentration at 1 h: 480 ng/mL
  concentration at 2 h: 445 ng/mL
  concentration at 4 h: 293 ng/mL
  concentration at 6 h: 274 ng/mL
  concentration at 24 h: 242 ng/mL
  concentration at 48 h: 140 ng/mL
  concentration at 72 h: 104 ng/mL
[9]
  concentration at 0.5 h: 890 ng/mL
  concentration at 1 h: 698 ng/mL
  concentration at 4 h: 424 ng/mL
  concentration at 48 h: 336 ng/mL
  concentration at 72 h: 219 ng/mL
human, intravenous, 475 mg/m2, Dose level 475 (mg/m2), one patient per datapoint, read-out: Day 1 AUC
  AUC: 15800 ng·h/mL
human, intravenous, 475 mg/m2, Dose level 475 (mg/m2), one patient per datapoint, read-out: Day 1 Cmax
  Cmax: 1850 ng/mL
human, intravenous, 475 mg/m2, Dose level 475 (mg/m2), one patient per datapoint, read-out: Day 8 or 15 Cmax
  Cmax: 1680 ng/mL
human, intravenous, 475 mg/m2, RP2D 475 mg/m^2 d1,8,15, read-out: average day 1 Cmax
  Cmax: 1740 ± 801 ng/mL
human, intravenous, 475 mg/m2, RP2D 475 mg/m^2 d1,8,15, read-out: day 15 Cmax
  Cmax: 2870 ± 2310 ng/mL
human, intravenous, 475 mg/m2, RP2D 475 mg/m^2 d1,8,15, read-out: elimination half-life (t1/2), day 1 (converted)
  half-life: 2.56 ± 0.646 days
human, intravenous, 475 mg/m2, RP2D 475 mg/m^2 d1,8,15, read-out: elimination half-life (t1/2), day 15 (converted)
  half-life: 2.46 ± 0.467 days
human, intravenous, 475 mg/m^2, 14 days after the prior dose, read-out: mean trough plasma level prior to cycle 2 day 1
  concentration at 14 days: 49.1 ± 34.5 ng/mL
[10]
  concentration at 0 h: 953 ng/mL
  concentration at 0.5 h: 1040 ng/mL
  concentration at 2 h: 712 ng/mL
  concentration at 4 h: 495 ng/mL
  concentration at 48 h: 222 ng/mL
human, intravenous, 650 mg/m2, Dose level 650 (mg/m2), one patient per datapoint, read-out: Day 1 AUC
  AUC: 26800 ng·h/mL
  elimination: eliminated slowly
